{"source": "paper PMC4914250", "about": "“Cancer therapeutic approach based on conformational stabilization of mutant p53 protein by small peptides” (Oncotarget, 2016)", "key": {"[1]": {"test_system": "mutp53 in SK3 cell extract", "assay": "ELISA of mutp53 conformation, SK3", "assay_type": "biochemical, human", "conditions": "score 0-6 compared to positive control", "excerpt": "(§1) A total of close to 350 peptides, deduced from the phage sequences, were synthesized and subjected to several alternative complementary methods of semi high-throughput functional screening; we refer to these peptides as pCAPs (p53 conformation activating peptides). First, we used cell-free ELISA assays to evaluate the effect of individual peptides on mutp53 conformation and DNA binding in vitro. For conformation analysis (Figure 2A), microtiter plates were coated with PAb240, PAb1620 or PAb421 as control, then the effect of each peptide on reactivity of mutp53 with these antibodies was examined; WTp53 served as a positive control for PAb1620 reactivity.\n(§2) 96-well plates were coated using 3 different anti p53 monoclonal antibodies, PAb421, PAb240 and PAb1620. Wells were incubated overnight (ON) with 100μl Ab (5μg/ml) in room temp (RT). The liquid was discarded, and the wells were washed 3 times with PBS, 200 μl. Next, blocking with 5% BSA in PBS for 2 hours (RT) was performed, followed by 3 washes in PBS. Samples of mutant and WT p53 proteins (100 μl, 10 μg/ml), together with control peptides or with test peptides 1-326 (5μg /ml), were incubated for 1.5 hours, and then added to the wells for1 hour at RT. 4 washes with PBST were performed. Next, HRP conjugated αp53 antibody (10μg/ml HAF1355 (R&D)) were added to the wells and incubated at RT for 1 hour. Plates were washed 3 times in PBST and TMB substrate solution (50μl each well, Thermo, (Cat. No. ES001-1L-K)) was added and incubated at 37°C for 20 min. The reaction was stopped with 2M Sulfuric acid (50μl). The absorbance was measured at 450 nm with a spectrophotometer. Protein concentration was determined by dividing the absorb an each sample to by the absorbance of PAb421 samples."}, "[2]": {"test_system": "mutp53 in BT549 cell extract", "assay": "ELISA of mutp53 conformation, BT549", "assay_type": "biochemical, human", "conditions": "score 0-6 compared to positive control", "excerpt": "as §1, §2"}, "[3]": {"test_system": "H1299 cells expressing mutp53^R175H", "assay": "Crystal violet viability assay, H1299", "assay_type": "cell-based", "conditions": "48 h; for mutp53-specific effect on cell number, H1299: H1299 mutp53^R175H versus p53-null; for Viability H1299: score 0-6 compared to positive control", "description": "Cell extracts were added to ELISA plates coated with the indicated antibodies to allow mutp53 to react with the peptides and antibodies. αp53-HRP Ab was used for assessment of p53 levels. Numbers represent ratio of absorbance between the PAb1620 and PAb240 samples. All reads were normalized to the control PAb241 reading of each extract. MCF7 (WTp53) and H1299-mutp53^A135V (tsp53) cells were used as positive controls for the WTp53 conformation (1620/240 ratio equals or exceeds 5:1). […] 96 well plates were coated with anti-p53 antibody, cell extracts containing p53 were reacted with oligonucleotides that contain a p53RE consensus binding site, labeled with biotin, in the presence or absence (NT) of test peptides. Streptavidin-HRP is used to quantify the amount of oligos in the well. TMB assay was performed to determine bound mutp53 levels (450nm). MCF7 and the H1299-mutp53^A135V(TS) cells serve as positive controls for WTp53. C.and D. - Bar graphs illustrating the effect of various selected peptides on mut-p53 dependent expression on cell viability. […] D, ES2 cells expressing endogenous mutp53 (blue bars) and ES2 cells knocked out for p53 by CRISPR construct (light blue bars). Cell lines were treated with selected peptides, Cis-platinum was used as positive control for cell death. 48 hours after treatment, cells were washed with PBS, and the remaining attached cells were stained with Crystal violet and washed 4 times with PBS. Stained cells were dissolved in 10% acetic acid and plates were taken for optical density measurement at 595nM.\nThis simple assay measures the total number of cells, thus reflecting the combination of both cell death and growth arrest effects. […] After 48 hours of treatment cells were stained with crystal violet and OD at 595nm was determined.\nValues on the Y-axis reflect the number of cells in the treated wells, normalized to the non-treated samples (NT; red bars)."}, "HOP62": {"test_system": "HOP62", "assay": "Crystal violet viability assay, HOP62", "assay_type": "cell-based, human", "design": "key: score 0- no effect-white; score 6- as or more effective than positive control- black", "conditions": "score 0-6 compared to positive control, 48 h", "excerpt": "We also performed a similar analysis on ES2 ovarian cancer cells, which express endogenous mp53^S241F, compared to ES2 cells in which p53 was stably knocked out using CRISPR/Cas9 (ES2 p53KO Figure S1F), to control for specificity for mutp53 (Figure 2D). In ES2 cells, too, some of the peptides caused a significant reduction in cell numbers, more prominent in the mutp53 expressing cells than in their p53KO counterparts. […] Overall, we performed this analysis on several different mutp53-expressing human cancer cell lines, and the results are summarized in Table S3. Based on this comprehensive picture, we reduced the number of most promising candidate lead peptides to 30. These peptides were then synthesized with an 8 arginine C-terminal tail for enhanced delivery across cell membranes (pCAPs 130-160); for clarity, peptides are referred to by their original number, with an R for poly arginine (see Table S3).\nCells were cultured in 96 wells plates with 2500-4000 cells/well. Serial dilutions of different peptides were added and the plates incubated for additional 48 h at 37°C. Then medium was removed and cell viability was determined by staining the cells with crystal violet (0.05%) in methanol/PBS (1:5, v/v), for 10 min, followed by 3 washes with PBS. 10% acetic acid was added to each well for 10 min. OD was determined at 595 nm."}}}
{"substance": "SFILFIRRGRLG [pCAP-60]", "values": [{"measurement": "Conform SK3", "setting": "[1]", "value": 2}, {"measurement": "Conform BT549", "setting": "[2]", "value": 1}, {"measurement": "mutp53-specific effect on cell number, H1299", "setting": "[3]", "value": "mutp53-specific effect"}, {"measurement": "Viability H1299", "setting": "[3]", "value": 2}, {"measurement": "Viability HOP62", "setting": "HOP62", "value": 3}]}
{"substance": "WNHHHSTPHPAH [pCAP-97]", "values": [{"measurement": "Conform SK3", "setting": "[1]", "value": 3}, {"measurement": "mutp53-specific effect on cell number, H1299", "setting": "[3]", "value": "mutp53-specific effect"}, {"measurement": "Viability H1299", "setting": "[3]", "value": 3}, {"measurement": "Viability HOP62", "setting": "HOP62", "value": 4}]}
{"substance": "myr-RRKHNKHRPEPDSDER [pCAP-221]", "values": [{"measurement": "Conform SK3", "setting": "[1]", "value": 3}, {"measurement": "Conform BT549", "setting": "[2]", "value": 3}, {"measurement": "Viability H1299", "setting": "[3]", "value": 2}, {"measurement": "Viability HOP62", "setting": "HOP62", "value": 5}]}
{"substance": "myr-RRIRDPRILLLHFD [pCAP-325]", "values": [{"measurement": "Conform SK3", "setting": "[1]", "value": 3}, {"measurement": "Conform BT549", "setting": "[2]", "value": 3}, {"measurement": "Viability H1299", "setting": "[3]", "value": 5}, {"measurement": "Viability HOP62", "setting": "HOP62", "value": 4}]}
{"substance": "myr-RRKILFIRLMHNKH [pCAP-227, myristoylated peptide, similarity to GAS2]", "values": [{"measurement": "Conform SK3", "setting": "[1]", "value": 1}, {"measurement": "Conform BT549", "setting": "[2]", "value": 4}, {"measurement": "Viability H1299", "setting": "[3]", "value": 5}, {"measurement": "Viability HOP62", "setting": "HOP62", "value": 6}]}
{"substance": "myr-PRVLPSPHTIHPSQYP [pCAP-229, myristoylated peptide, similarity to HIPK2]", "values": [{"measurement": "Conform SK3", "setting": "[1]", "value": 2}, {"measurement": "Viability H1299", "setting": "[3]", "value": 4}, {"measurement": "Viability HOP62", "setting": "HOP62", "value": 4}]}
{"substance": "WNHHHSTPHPAHRRRRRR [pCAP-97R, pCAP-97 with poly arginine tail]", "values": [{"measurement": "Conform SK3", "setting": "[1]", "value": 3}, {"measurement": "Viability H1299", "setting": "[3]", "value": 4}, {"measurement": "Viability HOP62", "setting": "HOP62", "value": 4}]}
{"substance": "HSSHHHPVHSWN [pCAP-83]", "values": [{"measurement": "Conform SK3", "setting": "[1]", "value": 2}, {"measurement": "mutp53-specific effect on cell number, H1299", "setting": "[3]", "value": "mutp53-specific effect"}, {"measurement": "Viability H1299", "setting": "[3]", "value": 4}]}
{"substance": "EVTFRHSVV [pCAP-1, randomly selected peptide used as inert comparison]", "values": [{"measurement": "Conform BT549", "setting": "[2]", "value": 1}, {"measurement": "Viability H1299", "setting": "[3]", "value": 1}, {"measurement": "Viability HOP62", "setting": "HOP62", "value": 3}]}
{"substance": "YRRLLIGMMWRRRRRRRRR [pCAP-68]", "values": [{"measurement": "Conform SK3", "setting": "[1]", "value": 5}, {"measurement": "Viability H1299", "setting": "[3]", "value": 3}, {"measurement": "Viability HOP62", "setting": "HOP62", "value": 5}]}
{"substance": "LRCLLLLIGRVGRRRRRRRR [pCAP-24R, pCAP-24 with poly arginine tail]", "values": [{"measurement": "Conform SK3", "setting": "[1]", "value": 2}, {"measurement": "Conform BT549", "setting": "[2]", "value": 2}, {"measurement": "Viability H1299", "setting": "[3]", "value": 4}]}
{"substance": "IRGRIIRRRRRRRRR [pCAP-54R, pCAP-54 with poly arginine tail]", "values": [{"measurement": "Conform BT549", "setting": "[2]", "value": 2}, {"measurement": "Viability H1299", "setting": "[3]", "value": 2}, {"measurement": "Viability HOP62", "setting": "HOP62", "value": 2}]}
{"substance": "HANLHHT [pCAP-87]", "values": [{"measurement": "Conform BT549", "setting": "[2]", "value": 2}, {"measurement": "Viability H1299", "setting": "[3]", "value": 3}, {"measurement": "Viability HOP62", "setting": "HOP62", "value": 3}]}
{"substance": "IRILMFLIGCGRRRRRRRRR [pCAP-23R, pCAP-23 with poly arginine tail]", "values": [{"measurement": "Conform BT549", "setting": "[2]", "value": 1}, {"measurement": "Viability H1299", "setting": "[3]", "value": 3}, {"measurement": "Viability HOP62", "setting": "HOP62", "value": 3}]}
{"substance": "myr-RRLIVRILKLPNPPER [pCAP-242]", "values": [{"measurement": "Conform BT549", "setting": "[2]", "value": 4}, {"measurement": "Viability H1299", "setting": "[3]", "value": 5}, {"measurement": "Viability HOP62", "setting": "HOP62", "value": 5}]}
{"substance": "LRCLLLLIGRVG [pCAP-24]", "values": [{"measurement": "Conform SK3", "setting": "[1]", "value": 2}, {"measurement": "Conform BT549", "setting": "[2]", "value": 2}, {"measurement": "mutp53-specific effect on cell number, H1299", "setting": "[3]", "value": "mutp53-specific effect"}]}
{"substance": "IRILMFLIGCGR [pCAP-23]", "values": [{"measurement": "Conform BT549", "setting": "[2]", "value": 2}, {"measurement": "Viability H1299", "setting": "[3]", "value": 3}, {"measurement": "Viability HOP62", "setting": "HOP62", "value": 3}]}
{"substance": "HHPWTHHQRWS [pCAP-20]", "values": [{"measurement": "Conform SK3", "setting": "[1]", "value": 4}]}
{"substance": "YPTQGHLR [pCAP-36]", "values": [{"measurement": "Conform SK3", "setting": "[1]", "value": 3}, {"measurement": "mutp53-specific effect on cell number, H1299", "setting": "[3]", "value": "mutp53-specific effect"}, {"measurement": "Viability H1299", "setting": "[3]", "value": 2}, {"measurement": "Viability HOP62", "setting": "HOP62", "value": 3}]}
{"substance": "SFILFIRRGRLGRRRRRRRRR [pCAP-60R, pCAP-60 with poly arginine tail]", "values": [{"measurement": "Conform SK3", "setting": "[1]", "value": 3}, {"measurement": "Conform BT549", "setting": "[2]", "value": 2}, {"measurement": "Viability H1299", "setting": "[3]", "value": 2}, {"measurement": "Viability HOP62", "setting": "HOP62", "value": 2}]}
{"substance": "IRGRIIR [pCAP-54]", "values": [{"measurement": "Conform BT549", "setting": "[2]", "value": 2}, {"measurement": "mutp53-specific effect on cell number, H1299", "setting": "[3]", "value": "mutp53-specific effect"}]}
{"substance": "LHSKTLVL [pCAP-17]", "values": [{"measurement": "Conform BT549", "setting": "[2]", "value": 2}]}
